Measured values taken from ChEMBL document CHEMBL1201862, “PubChem BioAssay data set” (2004).
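Step 1: Grow cells in 96-well plates. Step 2: Expose to compound for 48 hours at 5 concentrations. Step 3: Interpolate endpoints linearly; if unreached, use highest concentration. Abbreviation: GI50, concentration required for 50% inhibition of growth.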 Calls of active or inactive are those of the source. No stated cut-off is given here; in the data, active = GI50 up to about 1.1 µM and inactive = higher.

Experiments:
Experiment in all cases: NCI-60 cell line screen, 48 h
A498 = test system: A498
A549 = test system: A549
CAKI-1 = test system: CAKI-1
EKVX = test system: EKVX
HCT-116 = test system: HCT-116
K562 = test system: K562
LOX IMVI = test system: LOX IMVI
NCI-H226 = test system: NCI-H226
NCI-H522 = test system: NCI-H522
OVCAR-5 = test system: OVCAR-5
RPMI-8226 = test system: RPMI-8226
SF-539 = test system: SF-539
SK-MEL-28 = test system: SK-MEL-28
SK-MEL-5 = test system: SK-MEL-5
SK-OV-3 = test system: SK-OV-3
U-251 = test system: U-251
UACC-257 = test system: UACC-257
UACC-62 = test system: UACC-62

Compound	GI50 (A498)	GI50 (A549)	GI50 (CAKI-1)	GI50 (EKVX)	GI50 (HCT-116)	GI50 (K562)	GI50 (LOX IMVI)	GI50 (NCI-H226)	GI50 (NCI-H522)	GI50 (OVCAR-5)	GI50 (RPMI-8226)	GI50 (SF-539)	GI50 (SK-MEL-28)	GI50 (SK-MEL-5)	GI50 (SK-OV-3)	GI50 (U-251)	GI50 (UACC-257)	GI50 (UACC-62)
O=C1CC2CCCC23CC2(CCN13)OCCO2 (stereo not drawn)	> 100 µM (inactive)	> 100 µM (inactive)	> 100 µM (inactive)	> 100 µM (inactive)	> 100 µM (inactive)	> 100 µM (inactive)	> 100 µM (inactive)	> 100 µM (inactive)	> 100 µM (inactive)	> 100 µM (inactive)	> 100 µM (inactive)	> 100 µM (inactive)	> 100 µM (inactive)	> 100 µM (inactive)	> 100 µM (inactive)	> 100 µM (inactive)	> 100 µM (inactive)	> 100 µM (inactive)
COC(=O)[C@@H](C)[C@H]1CC[C@@](C)(CCC2=C(C)CC3C=C(C)CCC3C2(C)C)OO1 (stereo partly drawn)	1.8 µM (inactive)	1.6 µM (inactive)	1.34 µM (inactive)	1.64 µM (inactive)	1.69 µM (inactive)	1.3 µM (inactive)		2.04 µM (inactive)	0.167 µM (active)	1.87 µM (inactive)	1.65 µM (inactive)	1.82 µM (inactive)	1.65 µM (inactive)	1.49 µM (inactive)	2.4 µM (inactive)	1.42 µM (inactive)	2.99 µM (inactive)	1.94 µM (inactive)
O=C(O)CCCSC(=O)Nc1ccc(/N=N/c2ccccc2)cc1	> 100 µM (inactive)	> 100 µM (inactive)	> 100 µM (inactive)	> 100 µM (inactive)	> 100 µM (inactive)	65.9 µM (inactive)	> 100 µM (inactive)	> 100 µM (inactive)	> 100 µM (inactive)	> 100 µM (inactive)	> 100 µM (inactive)	> 100 µM (inactive)	> 100 µM (inactive)			> 100 µM (inactive)	> 100 µM (inactive)	> 100 µM (inactive)
Cc1cc(C)c2[s+]snc2c1	37.7 µM (inactive)	95.1 µM (inactive)	93.8 µM (inactive)	> 100 µM (inactive)	39.3 µM (inactive)	27.7 µM (inactive)	37.8 µM (inactive)	> 100 µM (inactive)	31.1 µM (inactive)	> 100 µM (inactive)		70 µM (inactive)	62.1 µM (inactive)	> 100 µM (inactive)	> 100 µM (inactive)	48.9 µM (inactive)	72.3 µM (inactive)	36.6 µM (inactive)
Oc1ccccc1-c1cnnc(-c2ccccc2O)c1			28.6 µM (inactive)	24.1 µM (inactive)	20.1 µM (inactive)	7.73 µM (inactive)	20.3 µM (inactive)	42 µM (inactive)	17.7 µM (inactive)	28.6 µM (inactive)	16.7 µM (inactive)	33.9 µM (inactive)	35.6 µM (inactive)		43.5 µM (inactive)		25.1 µM (inactive)	17.5 µM (inactive)
CC(C)=Nn1cnc(C(=N)C#N)c1N		> 100 µM (inactive)	> 100 µM (inactive)	> 100 µM (inactive)	> 100 µM (inactive)	> 100 µM (inactive)		> 100 µM (inactive)	> 100 µM (inactive)	> 100 µM (inactive)	> 100 µM (inactive)	> 100 µM (inactive)	> 100 µM (inactive)	> 10 µM (inactive)	> 100 µM (inactive)	> 100 µM (inactive)	> 100 µM (inactive)	> 100 µM (inactive)
CCOC1=C2C(C)(CCC3[C@@]4(C)C=CC(=O)C(C)(C)C4CC(O)[C@@]23C)C(c2ccoc2)C1=O (stereo partly drawn)	17.3 µM (inactive)	21.1 µM (inactive)	20.7 µM (inactive)	18.5 µM (inactive)	11.3 µM (inactive)	7.24 µM (inactive)	14.9 µM (inactive)	22 µM (inactive)		19.2 µM (inactive)	15.6 µM (inactive)	17.6 µM (inactive)	15.6 µM (inactive)	15.2 µM (inactive)	26.4 µM (inactive)	18 µM (inactive)	23.7 µM (inactive)	18.7 µM (inactive)
COc1ccc(C(=O)C#Cc2cnc(O)nc2O)cc1	23.7 µM (inactive)	20.7 µM (inactive)	9.64 µM (inactive)	19.4 µM (inactive)	6.03 µM (inactive)	3.61 µM (inactive)	3.21 µM (inactive)	18.7 µM (inactive)	3.12 µM (inactive)	17.1 µM (inactive)	13.3 µM (inactive)	7.33 µM (inactive)	14 µM (inactive)	13.5 µM (inactive)	52.8 µM (inactive)	9.29 µM (inactive)	11.9 µM (inactive)	12.9 µM (inactive)
